Read-outs that look alike come from different tables or passages of the source.

How the values of data set [1] were obtained:
A number of experiments were performed to map out the relative stability of Forms I to V. Prior to the relative stability tests, the solids of Forms I, II and III were dried in the oven to remove surface water.

For data set [2] the following is noted: RH>90% at room temperature; hydrochloride.
For data set [3] the following is noted: 37° C.; for water solubility: hydrochloride. The text has this:
Hydrocodone benzoic acid enol ester HCl exists in at least 6 distinct solid forms, designated herein as Forms I-V and amorphous. FIG. 1 is a scheme that depicts the general processes for converting hydrocodone benzoic acid enol ester HCl between its polymorphic forms I-V. Each polymorph has different characteristics, including solubility and stability.

Take `COc1ccc2c3c1O[C@H]1C(OC(=O)c4ccccc4)=CC[C@@H]4[C@@H](C2)N(C)CC[C@@]341.Cl` [Form I, hydrocodone benzoic acid enol ester hydrochloride]: the “relative stability of forms in slurry” value in data set [1] (in water or organic solvents that contain water) is listed as “always the most stable”. Besides, the “stability under high humidity” value in data set [2] is “stable for at least two weeks”. The water solubility result in data set [3] is “about 24 mg/mL”.

In the case of `COc1ccc2c3c1O[C@H]1C(OC(=O)c4ccccc4)=CC[C@@H]4[C@@H](C2)N(C)CC[C@@]341.Cl` [Form II, hydrocodone benzoic acid enol ester hydrochloride], the “relative stability of forms in slurry” value in data set [1] (in anhydrous organic solvents, especially at higher temperatures) is “the more stable one”. In addition, in data set [2], the “stability under high humidity” value was “hygroscopic and unstable, and converted to Form IV”. Besides, the water solubility in data set [3] is listed as over 200 mg/mL. In data set [3] (times higher than the solubility of Form I), the “water solubility relative to Form I” value amounted to 9 times.

Consider `COc1ccc2c3c1O[C@H]1C(OC(=O)c4ccccc4)=CC[C@@H]4[C@@H](C2)N(C)CC[C@@]341.Cl` [Form III, hydrocodone benzoic acid enol ester hydrochloride], for which the “stability under high humidity” value in data set [2] was “hygroscopic and unstable, and converted to Form V”.

For the molecule `COc1ccc2c3c1O[C@H]1C(OC(=O)c4ccccc4)=CC[C@@H]4[C@@H](C2)N(C)CC[C@@]341.Cl` [I + II + III, hydrocodone benzoic acid enol ester hydrochloride], the “Form after 1 day slurry” value in data set [1] (solvent Acetonitrile, 25° C.) is “I + traces of II”; in data set [1] (solvent IPA, 25° C.), “I + II”; in data set [1] (solvent IPA, 50° C.), “I + II”.

For the origin of these results see patent US10870654B2, “Pharmaceutically acceptable salts and polymorphic forms of hydrocodone benzoic acid enol ester and processes for making same” (KemPharm, Inc., priority 2013, dated 2020).
